Test results from PubChem BioAssay (NCI).
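Abbreviation: GI50, concentration required for 50% inhibition of growth. Definition used: TGI = concentration required for complete inhibition of growth.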

How the values were obtained:
Assay in all cases: NCI tumour cell line growth inhibition, 384-well format
MDA-MB-468 breast = system: MDA-MB-468 breast
UACC-257 melanoma = system: UACC-257 melanoma
MOLT-4 leukemia = system: MOLT-4 leukemia
OVCAR-3 ovarian = system: OVCAR-3 ovarian
A549 NSCLC = system: A549 NSCLC
COLO 205 colon = system: COLO 205 colon
BT-549 breast = system: BT-549 breast
NCI-H226 lung = system: NCI-H226 lung
SN12C renal = system: SN12C renal
DU-145 prostate = system: DU-145 prostate
MCF7 breast = system: MCF7 breast
OVCAR-4 ovarian = system: OVCAR-4 ovarian
K-562 leukemia = system: K-562 leukemia
OVCAR-8 ovarian = system: OVCAR-8 ovarian
HS 578T breast = system: HS 578T breast
HCC-2998 colon = system: HCC-2998 colon
NCI-H522 lung = system: NCI-H522 lung
NCI-H460 NSCLC = system: NCI-H460 NSCLC
MDA-MB-435 melanoma = system: MDA-MB-435 melanoma
T-47D breast = system: T-47D breast
TK-10 renal = system: TK-10 renal
CAKI-1 renal = system: CAKI-1 renal
786-0 renal = system: 786-0 renal
SNB-75 CNS = system: SNB-75 CNS
A498 renal = system: A498 renal
NCI-H322M lung = system: NCI-H322M lung
HCT-15 colon = system: HCT-15 colon
SF-268 CNS = system: SF-268 CNS
IGROV1 ovarian = system: IGROV1 ovarian
U251 glioblastoma = system: U251 glioblastoma
SF-539 CNS = system: SF-539 CNS
NCI-H23 lung = system: NCI-H23 lung
OVCAR-5 ovarian = system: OVCAR-5 ovarian
HCT-116 colon = system: HCT-116 colon
UACC-62 melanoma = system: UACC-62 melanoma
LOX IMVI melanoma = system: LOX IMVI melanoma
KM12 colon = system: KM12 colon
HL-60(TB) leukemia = system: HL-60(TB) leukemia
ACHN renal = system: ACHN renal
SW-620 colon = system: SW-620 colon
SR leukemia = system: SR leukemia
SF-295 CNS = system: SF-295 CNS
CCRF-CEM leukemia = system: CCRF-CEM leukemia
HOP-92 NSCLC = system: HOP-92 NSCLC
SNB-19 CNS = system: SNB-19 CNS
EKVX NSCLC = system: EKVX NSCLC
HOP-62 NSCLC = system: HOP-62 NSCLC

Work on `C=CC(=O)Nc1cccc(Oc2nc(Nc3ccc(N4CCN(C)CC4)cc3)nc3ccsc23)c1` yielded a GI50 (MDA-MB-468 breast) of 191 nM, a TGI (MDA-MB-468 breast) of 629 nM and a GI50 (UACC-257 melanoma) of 1520 nM. It also gave a TGI (UACC-257 melanoma) of 2870 nM, a GI50 (MOLT-4 leukemia) of 1530 nM and a TGI (MOLT-4 leukemia) of 2890 nM. The GI50 (OVCAR-3 ovarian) was 923 nM, the TGI (OVCAR-3 ovarian) was 2200 nM and the GI50 (A549 NSCLC) was 1640 nM. For the same compound, the TGI (A549 NSCLC) was 3500 nM, the GI50 (COLO 205 colon) was 1830 nM and the TGI (COLO 205 colon) was 3250 nM. For the same compound, the GI50 (BT-549 breast) was 1380 nM, the TGI (BT-549 breast) was 2690 nM and the GI50 (NCI-H226 lung) was 1570 nM. The TGI (NCI-H226 lung) was 3880 nM, the GI50 (SN12C renal) was 1350 nM and the TGI (SN12C renal) was 2750 nM. For the same compound, the GI50 (DU-145 prostate) was 1420 nM, the TGI (DU-145 prostate) was 3210 nM and the GI50 (MCF7 breast) was 1550 nM. The TGI (MCF7 breast) was 2960 nM, the GI50 (OVCAR-4 ovarian) was 1690 nM and the TGI (OVCAR-4 ovarian) was 3130 nM. For the same compound, the GI50 (K-562 leukemia) was 1380 nM, the TGI (K-562 leukemia) was 2720 nM and the GI50 (OVCAR-8 ovarian) was 1590 nM. For the same compound, the TGI (OVCAR-8 ovarian) was 3000 nM, the GI50 (HS 578T breast) was 1450 nM and the TGI (HS 578T breast) was 2800 nM. For the same compound, the GI50 (HCC-2998 colon) was 1700 nM, the TGI (HCC-2998 colon) was 3090 nM and the GI50 (NCI-H522 lung) was 334 nM. For the same compound, the TGI (NCI-H522 lung) was 1410 nM, the GI50 (NCI-H460 NSCLC) was 1620 nM and the TGI (NCI-H460 NSCLC) was 3030 nM. The GI50 (MDA-MB-435 melanoma) was 1780 nM, the TGI (MDA-MB-435 melanoma) was 3200 nM and the GI50 (T-47D breast) was 1500 nM. The TGI (T-47D breast) was 2840 nM, the GI50 (TK-10 renal) was 957 nM and the TGI (TK-10 renal) was 2250 nM. It also gave a GI50 (CAKI-1 renal) of 833 nM, a TGI (CAKI-1 renal) of 2150 nM and a GI50 ([…]-0 renal) of 1460 nM. It also gave a TGI (786-0 renal) of 2810 nM, a GI50 (SNB-75 CNS) of 1350 nM and a TGI (SNB-75 CNS) of 2740 nM. The GI50 (A498 renal) was 1220 nM, the TGI (A498 renal) was 2490 nM and the GI50 (NCI-H322M lung) was 902 nM. For the same compound, the TGI (NCI-H322M lung) was 3350 nM, the GI50 (HCT-15 colon) was 1560 nM and the TGI (HCT-15 colon) was 3030 nM. It also gave a GI50 (SF-268 CNS) of 1840 nM, a TGI (SF-268 CNS) of 4010 nM and a GI50 (IGROV1 ovarian) of 1060 nM. For the same compound, the TGI (IGROV1 ovarian) was 2260 nM, the GI50 (U251 glioblastoma) was 1650 nM and the TGI (U251 glioblastoma) was 3060 nM. The GI50 (SF-539 CNS) was 1750 nM, the TGI (SF-539 CNS) was 3150 nM and the GI50 (NCI-H23 lung) was 1940 nM. It also gave a TGI (NCI-H23 lung) of 5370 nM, a GI50 (OVCAR-5 ovarian) of 2020 nM and a TGI (OVCAR-5 ovarian) of 5790 nM. It also gave a GI50 (HCT-116 colon) of 1680 nM, a TGI (HCT-116 colon) of 3090 nM and a GI50 (UACC-62 melanoma) of 1520 nM. For the same compound, the TGI (UACC-62 melanoma) was 2870 nM, the GI50 (LOX IMVI melanoma) was 1810 nM and the TGI (LOX IMVI melanoma) was 3220 nM. The GI50 (KM12 colon) was 1590 nM, the TGI (KM12 colon) was 3120 nM and the GI50 (HL-60(TB) leukemia) was 1600 nM. The TGI (HL-60(TB) leukemia) was 2970 nM, the GI50 (ACHN renal) was 1260 nM and the TGI (ACHN renal) was 2690 nM. For the same compound, the GI50 (SW-620 colon) was 1740 nM, the TGI (SW-620 colon) was 3140 nM and the GI50 (SR leukemia) was 857 nM. The TGI (SR leukemia) was 1950 nM, the GI50 (SF-295 CNS) was 5010 nM and the TGI (SF-295 CNS) was 15700 nM. The GI50 (CCRF-CEM leukemia) was 1500 nM, the TGI (CCRF-CEM leukemia) was 2840 nM and the GI50 (HOP-92 NSCLC) was 1370 nM. It also gave a TGI (HOP-92 NSCLC) of 2950 nM, a GI50 (SNB-19 CNS) of 1820 nM and a TGI (SNB-19 CNS) of 3700 nM. It also gave a GI50 (EKVX NSCLC) of 1310 nM, a TGI (EKVX NSCLC) of 3840 nM and a GI50 (HOP-62 NSCLC) of 2000 nM. The TGI (HOP-62 NSCLC) was 4540 nM.
